The values that follow are results of earlier work, collected in PMC7385171, “Molecular engineering of safe and efficacious oral basal insulin” (Nature Communications, 2020).

For the series the following is noted: man, 8-week study; oral for the analogue, SC for insulin glargine.

Consider insulin glargine, for which the “coefficient of variation of fasting plasma glucose” value is reported as 17.5%.
